Earlier results on one substance are cited in patent publication US11858967B2, “Compositions and methods for enhanced production of enduracidin in a genetically engineered strain of streptomyces fungicidicus” (Oregon State University, priority 2016, dated 2024).

Like-named read-outs stand apart in the source and are kept apart here. Some results are limits rather than exact numbers.

The test system of one series is MRSA. The note with it: humans, i.m. 100 mg every 12 hours.
Series [1] deals with Gram-positive organisms, including methicillin-resistant Staphylococcus aureus (MRSA) and vancomycin-resistant Enterococcus (VRE).
The conditions of series [2]: rat, in vivo.
For series [3] the following is noted: monkey, in vivo.
For series [4] the following is noted: in vivo.
For series [5], the system named is S. aureus (100 strains, including 40% MRSA). The note with it: 100 strains of S. aureus.
The conditions of series [6]: mice, rabbits, dogs and monkeys.

Regarding Enduracidin, the “efficacy in chronic bone infections” value with MRSA is listed as “not chronic bone infections”. For the same substance, in the series on MRSA, the “efficacy in urinary tract and skin infections caused by MRSA” value is reported as “highly effective”. Also, in the series on Clostridium spp., the “activity towards Clostridium spp.” value is “excellent activity”. Moreover, in series [1], the “type of antibacterial effect” value is “bactericidal”. In addition, in series [1] (as low as), the “Minimum inhibitory concentrations (MICs)” value was not below 0.05 µg/mL. Besides, the “findings after long-term dosing” value in series [2] and in series [3] was “localized inflammation at the injection site” throughout. The oral bioavailability entry in series [4] is listed as “lack of oral bioavailability”. Also, the “concentration at which no strain was able to survive exposure” value in series [5] is 1 µg/mL. In addition, the “acute LD50” value in series [6] (intraperitoneal) is 750 to 910 mg/kg; in series [6] (intravenous), 30 to 125 mg/kg; in series [6] (subcutaneous, intramuscular (i.m.) or oral), 5000 to 10000 mg/kg.
